# Experiments:
# [1] = tested on: cyclic AMP phosphodiesterase originated from a cow brain; test: Reaction with cyclic AMP phosphodiesterase; type: biochemical; conditions: enzyme originated from a cow brain
# [2] = tested on: Herpes Simplex Virus Type 1, HF Strainn; test: Inhibition of viral cytopathogenic effect in infected Vero cells; type: cell-based
# From the text: Inhibitory Effect of Antiviral Compounds against Herpes Simplex Virus Type 1, HF Strainn
# Vero cells were infected with 100 TCIDso(50% tissue-culture infected doses) of viruses and cultured with various concentrations of the compounds.
# [3] = Cytotoxicity in non-infected control culture (visible disruption of normal cell morphology); type: cell-based; conditions: monkey, vero cells; minimum concentration to cause a visible disruption of normal cell morphology; non-infected Vero control culture, three days; read-out: Cytotoxicity^b)
# Vero cells = test: as above; type: cell-based; conditions: minimum concentration to cause a visible disruption of normal cell morphology; non-infected Vero control culture, three days; 4320 min
molecule,measurement,setting,value
"2'-Deoxyaristeromycin-3',6'-cyclic phosphate [Example 1]",conversion by cyclic AMP phosphodiesterase,[1],changed to 2'-deoxyaristeromycin-mono phosphate
Nc1nc2c(ncn2[C@@H]2C[C@H](COP(=O)(O)O)[C@@H](O)C2)c(=O)[nH]1 [Carbocyclic•2'-deoxyguanosine-6'-monophosphate],EC50,"[2]; Human alphaherpesvirus 1, 72 h; concentration required to reduce the viral cytopathogenic effect by 50%; Vero cells infected with 100 TCID50; observed three days after the infection; read-out: ID50^a)",0.2 µg/mL
same,MCC at 72 h,[3],50 µg/mL
Carbocyclic•2'-deoxyguanosine 6'-triphosphate,ID50^a),"[2]; concentration required to reduce the viral cytopathogenic effect by 50%, Vero cells infected with 100 TCID50, observed three days after the infection, 4320 min",0.4 µg/mL
same,Cytotoxicity^b),Vero cells,50 µg/mL
